Like-named read-outs stand apart in the source and are kept apart here.
Experiments:
Type in all cases: cell-based
[1] = tested on: MDA-MB-435; assay: NCI-60 5 dose screen, Melanoma; details: Homo sapiens
[2] = tested on: HS 578T; assay: NCI-60 5 dose screen, Breast Cancer; details: Homo sapiens
[3] = tested on: HCT-2998; assay: NCI-60 5 dose screen, Colon Cancer; details: Homo sapiens
[4] = tested on: M14; assay: NCI-60 5 dose screen, Melanoma; details: Homo sapiens
[5] = tested on: SNB-75; assay: NCI-60 5 dose screen, CNS Cancer; details: Homo sapiens
[6] = tested on: EKVX; assay: NCI-60 5 dose screen, NSC Lung Cancer; details: Homo sapiens
[7] = tested on: U251; assay: NCI-60 5 dose screen, CNS Cancer; details: Homo sapiens, U-251
[8] = tested on: OVCAR-4; assay: NCI-60 5 dose screen, Ovarian Cancer; details: Homo sapiens
[9] = tested on: COLO205; assay: NCI-60 5 dose screen, Colon Cancer; details: Homo sapiens, COLO 205
[10] = tested on: MDA-MB-231/ATCC; assay: NCI-60 5 dose screen, Breast Cancer; details: Homo sapiens
[11] = tested on: HCT-15; assay: NCI-60 5 dose screen, Colon Cancer; details: Homo sapiens
[12] = tested on: DU-145; assay: NCI-60 5 dose screen, Prostate cancer; details: Homo sapiens
[13] = tested on: UO-31; assay: NCI-60 5 dose screen, Renal Cancer; details: Homo sapiens
[14] = tested on: RXF 393; assay: NCI-60 5 dose screen, Renal Cancer; details: Homo sapiens
[15] = tested on: HCT-116; assay: NCI-60 5 dose screen, Colon Cancer; details: Homo sapiens
[16] = tested on: U266 cells; assay: Cell viability assay, antiproliferative activity; details: Homo sapiens, U-266; U266, 72 h
Text: Compounds 10n and 10e were next evaluated for antiproliferation in multiple myeloma (U266) cells. Multiple myeloma, also known as plasma cell myeloma, is a malignant haematological disease characterised by the proliferation of clonal plasma cells predominantly in the bone marrow. U266 cells are considered to be the least sensitive multiple myeloma cells to nucleoside drug cladribine compared to RPMI8226 and MM1.S cells.
The human breast carcinoma cell line MCF-7 was purchased from the European Collection of Animal Cell Cultures (ECACC). Triple negative breast cancer Hs578T cells and its invasive variant Hs578Ts(i)8 were a kind gift from Dr. Susan McDonnell, School of Chemical and Bioprocess Engineering, University College Dublin. U266 cells were a gift from Dr. Tony McElligott, School of Medicine, St James’s Hospital, Trinity College Dublin. HT-29 cells were purchased from the European Collection of Cell Cultures (originating from a human adenocarcinoma of the colon). The human breast carcinoma cell line MDA-MB-231 and the HL-60 cells derived from a patient with acute myeloid leukaemia were both obtained from ECACC (Salisbury, UK). The SW-480 cells were a kind gift from Dr. Brian Flood, School of Biochemistry and Immunology, Trinity College Dublin. HEK-293T (normal epithelial embryonic kidney cells) were cultured in Dulbecco’s Modified Eagle’s Medium (DMEM) with GlutaMAXTM-I in the absence of non-essential amino acids. […] Cell numbers were monitored using a haemocytometer. […]
A stock solution of each β-lactam compound was prepared (10 mM) and serial […] dilutions were made with ethanol for compounds to have working dilutions of 1 nM, 10 nM, 100 nM, 500 nM, 1µM, 5 µM, 10 µM and 50 µM. […] Solubilisation was commenced by the addition of DMSO ([…]) and the cells were maintained at 20 °C in the dark for 20 min before reading the absorbance to ensure complete colour diffusion. […]

[17] = tested on: 786-0; assay: NCI-60 5 dose screen, Renal Cancer; details: Homo sapiens
[18] = tested on: SN12C; assay: NCI-60 5 dose screen, Renal Cancer; details: Homo sapiens
[19] = tested on: NCI-H460; assay: NCI-60 5 dose screen, NSC Lung Cancer; details: Homo sapiens
[20] = tested on: NCI-H23; assay: NCI-60 5 dose screen, NSC Lung Cancer; details: Homo sapiens
[21] = tested on: SK-OV-3; assay: NCI-60 5 dose screen, Ovarian Cancer; details: Homo sapiens
[22] = tested on: BT-549; assay: NCI-60 5 dose screen, Breast Cancer; details: Homo sapiens
[23] = tested on: NCI/ADR-RES; assay: NCI-60 5 dose screen, Ovarian Cancer; details: Homo sapiens
[24] = tested on: A498; assay: NCI-60 5 dose screen, Renal Cancer; details: Homo sapiens
[25] = tested on: SF295; assay: NCI-60 5 dose screen, CNS Cancer; details: Homo sapiens, SF-295
[26] = tested on: OVCAR-5; assay: NCI-60 5 dose screen, Ovarian Cancer; details: Homo sapiens
[27] = MDA-MB-231/ATCC, read-out: GI50

SMILES: COc1ccc([C@H]2[C@H](Cl)C(=O)N2c2cc(OC)c(OC)c(OC)c2)cc1 (relative stereo) [Compound 10e trans, Trans-3-chloro-1-(3,4,5-trimethoxyphenyl)-4-(4-methoxyphenyl) azetidin-2-one]
- GI50 ([1]; read-out: GI50): 0.0226 µM
- GI50 ([2]; HS 578T, read-out: GI50): 0.0553 µM
- GI50 ([3]; HCT-2998, read-out: GI50): 0.0804 µM
- GI50 ([4]; read-out: GI50): 0.0396 µM
- GI50 ([5]; read-out: GI50): 0.0382 µM
- GI50 ([6]; read-out: GI50): 0.0694 µM
- GI50 ([7]; U251, read-out: GI50): 0.037 µM
- GI50 ([8]; read-out: GI50): 0.106 µM
- GI50 ([9]; COLO205, read-out: GI50): 0.0492 µM
- GI50 [10, 27]: 0.0686 µM
- GI50 ([11]; read-out: GI50): 0.0504 µM
- GI50 ([12]; read-out: GI50): 0.0446 µM
- GI50 ([13]; read-out: GI50): 0.0644 µM
- GI50 ([14]; read-out: GI50): 0.0271 µM
- GI50 ([15]; read-out: GI50): 0.0397 µM
- IC50 [16]: 0.077 ± 0.02 µM
- GI50 ([17]; read-out: GI50): 0.0694 µM
- GI50 ([18]; read-out: GI50): 0.0837 µM
- GI50 ([19]; read-out: GI50): 0.306 µM
- GI50 ([20]; read-out: GI50): 0.0312 µM
- GI50 ([21]; read-out: GI50): 0.182 µM
- GI50 ([22]; read-out: GI50): 0.174 µM
- GI50 ([23]; read-out: GI50): 0.0353 µM
- GI50 ([24]; read-out: GI50): 0.0271 µM
- GI50 ([25]; SF295, read-out: GI50): 0.0254 µM
- GI50 ([26]; read-out: GI50): 0.0806 µM

SMILES: COc1ccc(/C=C\c2cc(OC)c(OC)c(OC)c2)cc1O [CA-4, Combretastatin A-4]
- IC50 [16]: 0.035 ± 0.01 µM

SMILES: COc1ccc(C2C(Cl)C(=O)N2c2cc(OC)c(OC)c(OC)c2)cc1O (stereo not drawn) [Compound 10n, 3-Chloro-4-(3-hydroxy-4-methoxy-phenyl)-1-(3,4,5-trimethoxyphenyl)azetidin-2-one]
- IC50 [16]: 0.031 ± 0.01 µM

SMILES: COc1ccc(C2N(c3cc(OC)c(OC)c(OC)c3)C(=O)C2(Cl)Cl)cc1O (stereo not drawn) [Compound 11n, 3,3-Dichloro-4-(3-hydroxy-4-methoxyphenyl)-1-(3,4,5-trimethoxyphenyl)azetidin-2-one]
- GI50 [1]: 0.0202 µM
- GI50 ([2]; Hs-578T): 0.0428 µM
- GI50 [3]: 0.0534 µM
- GI50 [4]: 0.0313 µM
- GI50 [5]: 0.0199 µM
- GI50 [6]: 0.0464 µM
- GI50 [7]: 0.0325 µM
- GI50 [8]: 0.0741 µM
- GI50 [9]: 2.91 µM
- GI50 ([10]; MDA-MB-231): 0.0316 µM
- GI50 [11]: 0.0383 µM
- GI50 [12]: 0.0359 µM
- GI50 [13]: 0.0821 µM
- GI50 [14]: 0.03 µM
- GI50 [15]: 0.0328 µM
- GI50 [17]: 0.0412 µM
- GI50 [18]: 0.0446 µM
- GI50 [19]: 0.0354 µM
- GI50 [20]: 0.0242 µM
- GI50 [21]: 0.0254 µM
- GI50 [22]: 0.0397 µM
- GI50 [23]: 0.0265 µM
- GI50 [24]: 0.0226 µM
- GI50 [25]: 0.0387 µM
- GI50 [26]: 0.312 µM

SMILES: CCSc1ccc(C2C(Br)C(=O)N2c2cc(OC)c(OC)c(OC)c2)cc1 (stereo not drawn) [Compound 16d, 3-Bromo-4-(4-(ethylthio)phenyl)-1-(3,4,5-trimethoxyphenyl)azetidin-2-one]
- GI50 ([1]; read-out: GI50): 0.0377 µM
- GI50 ([2]; HS 578T, read-out: GI50): 0.229 µM
- GI50 ([3]; HCT-2998, read-out: GI50): 0.673 µM
- GI50 ([4]; read-out: GI50): 0.128 µM
- GI50 ([5]; read-out: GI50): 0.509 µM
- GI50 ([6]; read-out: GI50): 0.639 µM
- GI50 ([7]; U251, read-out: GI50): 0.345 µM
- GI50 ([8]; read-out: GI50): 1.43 µM
- GI50 ([9]; COLO205, read-out: GI50): 0.23 µM
- GI50 [10, 27]: 0.488 µM
- GI50 ([11]; read-out: GI50): 0.21 µM
- GI50 ([12]; read-out: GI50): 0.349 µM
- GI50 ([13]; read-out: GI50): 0.342 µM
- GI50 ([14]; read-out: GI50): 0.17 µM
- GI50 ([15]; read-out: GI50): 0.222 µM
- GI50 ([17]; read-out: GI50): 0.34 µM
- GI50 ([18]; read-out: GI50): 0.925 µM
- GI50 ([19]; read-out: GI50): 0.539 µM
- GI50 ([20]; read-out: GI50): 0.478 µM
- GI50 ([21]; read-out: GI50): 0.392 µM
- GI50 ([22]; read-out: GI50): 0.525 µM
- GI50 ([23]; read-out: GI50): 0.125 µM
- GI50 ([24]; read-out: GI50): 0.103 µM
- GI50 ([25]; SF295, read-out: GI50): 0.087 µM
- GI50 ([26]; read-out: GI50): 0.431 µM
